Measured values from ChEMBL document CHEMBL1201862, “PubChem BioAssay data set” (2004).
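Briefly, cells in 96-well plates were exposed to five compound concentrations for 48 h, and endpoints were estimated by linear interpolation. GI50: concentration for 50% inhibition of growth.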 The source made the active and inactive calls. Cut-off read from the data, not from the text of the source: active = GI50 up to about 1.1 µM and inactive = higher.

Key:
Assay in all cases: NCI tumour cell line growth inhibition, 48 h
786-0 = test system: 786-0
CAKI-1 = test system: CAKI-1
EKVX = test system: EKVX
HCT-116 = test system: HCT-116
HCT-15 = test system: HCT-15
IGROV-1 = test system: IGROV-1
KM12 = test system: KM12
LOX IMVI = test system: LOX IMVI
NCI-H23 = test system: NCI-H23
NCI-H522 = test system: NCI-H522
OVCAR-3 = test system: OVCAR-3
OVCAR-5 = test system: OVCAR-5
SK-OV-3 = test system: SK-OV-3
SN12C = test system: SN12C
SR = test system: SR
UACC-257 = test system: UACC-257
UACC-62 = test system: UACC-62
BT-549 = test system: BT-549
MCF7 = test system: MCF7
MDA-MB-231 = test system: MDA-MB-231

Row | SMILES | GI50 (786-0) | GI50 (CAKI-1) | GI50 (EKVX) | GI50 (HCT-116) | GI50 (HCT-15) [µM] | GI50 (IGROV-1) | GI50 (KM12) | GI50 (LOX IMVI) | GI50 (NCI-H23) | GI50 (NCI-H522) | GI50 (OVCAR-3) | GI50 (OVCAR-5) | GI50 (SK-OV-3) | GI50 (SN12C) | GI50 (SR) | GI50 (UACC-257) | GI50 (UACC-62) | GI50 (BT-549) | GI50 (MCF7) | GI50 (MDA-MB-231)
1 | C[C@]12C=CC(=O)C=C1CC[C@H]1[C@@H]3C[C@@H](O)[C@](O)(C(=O)CO)[C@@]3(C)C[C@H](O)[C@@]12F [TRIAMCINOLONE] | > 100 µM (inactive) | > 100 µM (inactive) | > 100 µM (inactive) | > 100 µM (inactive) | > 100 | > 100 µM (inactive) | > 100 µM (inactive) | > 100 µM (inactive) | > 100 µM (inactive) | > 100 µM (inactive) | > 100 µM (inactive) | > 100 µM (inactive) | > 100 µM (inactive) | > 100 µM (inactive) | > 100 µM (inactive) | > 100 µM (inactive) | > 100 µM (inactive) |  |  | 
2 | CSC1=N[C@H](c2ccccc2)CS1 | > 100 µM (inactive) | > 100 µM (inactive) | > 100 µM (inactive) | > 100 µM (inactive) | > 100 | > 100 µM (inactive) | > 100 µM (inactive) |  | > 100 µM (inactive) |  | > 100 µM (inactive) | > 100 µM (inactive) |  | > 100 µM (inactive) |  | > 100 µM (inactive) | > 100 µM (inactive) | > 100 µM (inactive) | > 100 µM (inactive) | 
3 | O=C(CP(c1ccccc1)c1ccccc1)c1cccc(C(=O)CP(c2ccccc2)c2ccccc2)c1 | 85.7 µM (inactive) | 86.3 µM (inactive) | 56.9 µM (inactive) | 36.8 µM (inactive) | 49.3 | > 100 µM (inactive) | 26.1 µM (inactive) |  |  |  |  | > 100 µM (inactive) | > 100 µM (inactive) | 56.8 µM (inactive) | 15.7 µM (inactive) | 32.1 µM (inactive) | 78.3 µM (inactive) |  | 17.9 µM (inactive) | 68.9 µM (inactive)
4 | Cc1ccnc(NS(=O)(=O)c2ccc(NC3=CC(=O)C(=O)c4ccccc43)cc2)n1 | > 100 µM (inactive) | > 100 µM (inactive) | > 100 µM (inactive) | > 100 µM (inactive) | > 100 | > 100 µM (inactive) | > 100 µM (inactive) | > 100 µM (inactive) | > 100 µM (inactive) | > 100 µM (inactive) | > 100 µM (inactive) | > 100 µM (inactive) | > 100 µM (inactive) | > 100 µM (inactive) | > 100 µM (inactive) | > 100 µM (inactive) | > 100 µM (inactive) |  |  | 
5 | C=CCOc1cc2c(cc1C(C)c1ccc(OC)cc1)OCO2 (centres undefined) | 0.655 µM (active) | 0.628 µM (active) |  | 0.525 µM (active) | 0.489 |  | 0.372 µM (active) | 0.598 µM (active) | 0.807 µM (active) | 0.205 µM (active) | 0.429 µM (active) | 12.2 µM (inactive) | 0.311 µM (active) | 0.849 µM (active) | 0.299 µM (active) | 0.263 µM (active) | 0.416 µM (active) |  | 0.453 µM (active) | 11.5 µM (inactive)
6 | O=C(Nc1nc2ccccc2n1Cc1ccc(Cl)cc1)NC12CC3CC(CC(C3)C1)C2 | 20.5 µM (inactive) | 34.7 µM (inactive) | 32.7 µM (inactive) | 19.4 µM (inactive) | 71.6 | 41 µM (inactive) | 53.8 µM (inactive) | 34.1 µM (inactive) | 16.4 µM (inactive) | 16.1 µM (inactive) | 22.6 µM (inactive) | 91.2 µM (inactive) | 16.2 µM (inactive) | 28.4 µM (inactive) | 27.9 µM (inactive) | 28.2 µM (inactive) | 17.3 µM (inactive) |  |  | 
7 | CC1=Nc2c(ccc3c2C(=O)c2ccccc2C3=O)NC(c2cccc3c2CCC3)C1 (centres undefined) | > 100 µM (inactive) | 6.27 µM (inactive) | > 100 µM (inactive) | 66.2 µM (inactive) | 18.7 | 10.3 µM (inactive) | > 31.9 µM (inactive) | 24.2 µM (inactive) | > 100 µM (inactive) | > 23.1 µM (inactive) | > 90.4 µM (inactive) | > 100 µM (inactive) | > 31 µM (inactive) | > 100 µM (inactive) | 11 µM (inactive) | > 100 µM (inactive) | > 100 µM (inactive) |  |  | 
8 | CCOC(=O)c1c(-c2ccccc2)nc2ccccc2c1O | > 100 µM (inactive) | > 100 µM (inactive) | > 100 µM (inactive) | > 100 µM (inactive) | > 100 | > 100 µM (inactive) | > 100 µM (inactive) |  | > 100 µM (inactive) |  |  | > 100 µM (inactive) | > 100 µM (inactive) |  | > 100 µM (inactive) | > 100 µM (inactive) |  |  | > 100 µM (inactive) | 
9 | CCOC(=O)c1ccc(-c2ccc(Cl)cc2)[nH]1 | > 10 µM (inactive) |  | 2.28 µM (inactive) | > 10 µM (inactive) | > 10 | > 10 µM (inactive) | > 10 µM (inactive) |  | > 10 µM (inactive) | > 10 µM (inactive) | > 10 µM (inactive) | > 10 µM (inactive) | > 10 µM (inactive) | > 10 µM (inactive) | > 10 µM (inactive) | > 10 µM (inactive) | > 10 µM (inactive) | > 10 µM (inactive) |  | 
